{"source": "the supplement of paper PMC9663587", "key": {"[1]": {"compound": "CCCCOc1c(C(=O)c2c(F)cc(C)cc2F)c[nH]c2nncc1-2"}, "Saracatinib/AZD0530": {"compound": "CN1CCN(CCOc2cc(OC3CCOCC3)c3c(Nc4c(Cl)ccc5c4OCO5)ncnc3c2)CC1 [Saracatinib/AZD0530]"}, "Rucaparib": {"compound": "CNCc1ccc(-c2[nH]c3cc(F)cc4c3c2CCNC4=O)cc1 [Rucaparib]"}, "THZ531 [2]": {"compound": "T1, CN(C)C/C=C/C(=O)Nc1ccc(C(=O)N2CCC[C@@H](Nc3ncc(Cl)c(-c4c[nH]c5ccccc45)n3)C2)cc1 [THZ531]"}, "BVD523": {"compound": "CC(C)Nc1cc(-c2c[nH]c(C(=O)N[C@H](CO)c3cccc(Cl)c3)c2)c(Cl)cn1 [BVD523]"}, "THZ1 [3]": {"compound": "T2, CN(C)C/C=C/C(=O)Nc1ccc(C(=O)Nc2cccc(Nc3ncc(Cl)c(-c4c[nH]c5ccccc45)n3)c2)cc1 [THZ1]"}, "[4]": {"compound": "COc1ccc2c(c1)[C@]1(C[C@H]1c1ccc3c(/C=C/c4ccc(CN5C[C@@H](C)O[C@@H](C)C5)cc4)n[nH]c3c1)C(=O)N2"}, "Alpelisib/BYL719": {"compound": "Cc1nc(NC(=O)N2CCC[C@H]2C(N)=O)sc1-c1ccnc(C(C)(C)C(F)(F)F)c1 [Alpelisib/BYL719]"}, "[5]": {"compound": "CO[C@@H](C)Cn1c(=O)n(C)c2cnc3ccc(-c4cncc(C(C)(C)O)c4)cc3c21"}, "Cediranib/AZD2171": {"compound": "COc1cc2c(Oc3ccc4[nH]c(C)cc4c3F)ncnc2cc1OCCCN1CCCC1 [Cediranib/AZD2171]"}, "[6]": {"compound": "CC(=O)Nc1cccc(-n2c(=O)n(C3CC3)c(=O)c3c(Nc4ccc(I)cc4F)n(C)c(=O)c(C)c32)c1"}, "AZD1775": {"compound": "C=CCn1c(=O)c2cnc(Nc3ccc(N4CCN(C)CC4)cc3)nc2n1-c1cccc(C(C)(C)O)n1 [AZD1775]"}, "YKL-5-124": {"compound": "C=CC(=O)Nc1ccc(C(=O)Nc2[nH]nc3c2CN(C(=O)N[C@H](CN(C)C)c2ccccc2)C3(C)C)cc1 [YKL-5-124]", "test": "increase in dead-cell fraction, 72 h; higher = more death;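 further: breast cancer cell lines in 384-well plates, stained with Hoechst plus LIVE/DEAD far red dye and imaged, cells above an LDR intensity threshold counted dead, Hoechst-negative corpses included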"}, "[7]": {"compound": "CC(=O)c1c(C)c2cnc(Nc3ccc(N4CCNCC4)cn3)nc2n(C2CCCC2)c1=O", "test": "increase in dead-cell fraction, 72 h; higher = more death"}, "THZ531 [8]": {"compound": "T1, THZ531", "test": "increase in dead-cell fraction, 72 h; higher = more death"}, "THZ1 [9]": {"compound": "T2, THZ1", "test": "increase in dead-cell fraction, 72 h; higher = more death"}, "[10]": {"compound": "CCc1cnn2c(NCc3ccc[n+]([O-])c3)cc(N3CCCC[C@H]3CCO)nc12", "test": "increase in dead-cell fraction, 72 h; higher = more death"}, "LEE011/Ribociclib": {"compound": "CN(C)C(=O)c1cc2cnc(Nc3ccc(N4CCNCC4)cn3)nc2n1C1CCCC1 [LEE011/Ribociclib]", "test": "increase in dead-cell fraction, 72 h; higher = more death"}, "Neratinib/HKI272": {"compound": "CCOc1cc2ncc(C#N)c(Nc3ccc(OCc4ccccn4)c(Cl)c3)c2cc1NC(=O)/C=C/CN(C)C [Neratinib/HKI272]", "test": "increase in dead-cell fraction, 72 h; higher = more death"}, "BSJ-03-123": {"compound": "CC(=O)c1c(C)c2cnc(Nc3ccc(N4CCN(CCOCCOCCOCCNC(=O)COc5cccc6c5C(=O)N(C5CCC(=O)NC5=O)C6=O)CC4)cn3)nc2n(C2CCCC2)c1=O [BSJ-03-123]", "test": "increase in dead-cell fraction, 72 h; higher = more death"}}, "data": [{"cell line": "CAL120", "values": [{"measurement": "GR50, 72 h", "setting": "[1]", "result": 2.2, "unit": "µM"}, {"measurement": "GR50, 72 h", "setting": "Saracatinib/AZD0530", "result": "> 10", "unit": "µM"}, {"measurement": "GR50, 72 h", "setting": "Rucaparib", "result": "> 10", "unit": "µM"}, {"measurement": "GR50, 72 h", "setting": "THZ531 [2]", "result": 0.15, "unit": "µM"}, {"measurement": "GR50, 72 h", "setting": "BVD523", "result": 9.62, "unit": "µM"}, {"measurement": "GR50, 72 h", "setting": "THZ1 [3]", "result": 0.0579, "unit": "µM"}, {"measurement": "GR50, 72 h", "setting": "[4]", "result": 0.00365, "unit": "µM"}, {"measurement": "GR50, 72 h", "setting": "Alpelisib/BYL719", "result": "> 10", "unit": "µM"}, {"measurement": "GR50, 72 h", "setting": "[5]", "result": 0.00177, "unit": "µM"}, {"measurement": "GR50, 72 h", "setting": "Cediranib/AZD2171", "result": 1.04, "unit": "µM"}, {"measurement": "GR50, 72 h", "setting": "[6]", "result": 0.0468, "unit": "µM"}, {"measurement": "GR50, 72 h", "setting": "AZD1775", "result": 0.197, "unit": "µM"}, {"measurement": "increase in dead-cell fraction", "setting": "YKL-5-124; 0.001 µM", "result": 0.0168}, {"measurement": "increase in dead-cell fraction", "setting": "YKL-5-124; 0.003162 µM", "result": 0.0283}, {"measurement": "increase in dead-cell fraction", "setting": "YKL-5-124; 0.01 µM", "result": 0.0348}, {"measurement": "increase in dead-cell fraction", "setting": "YKL-5-124; 0.03162 µM", "result": 0.0304}, {"measurement": "increase in dead-cell fraction", "setting": "YKL-5-124; 0.1 µM", "result": 0.0343}, {"measurement": "increase in dead-cell fraction", "setting": "YKL-5-124; 0.3162 µM", "result": 0.0427}, {"measurement": "increase in dead-cell fraction", "setting": "YKL-5-124; 1 µM", "result": 0.0333}, {"measurement": "increase in dead-cell fraction", "setting": "YKL-5-124; 3.162 µM", "result": 0.0461}, {"measurement": "increase in dead-cell fraction", "setting": "YKL-5-124; 10 µM", "result": 0.0476}, {"measurement": "increase in dead-cell fraction", "setting": "[7]; 0.0003162 µM", "result": -0.0011}, {"measurement": "increase in dead-cell fraction", "setting": "[7]; 0.001 µM", "result": -0.0036}, {"measurement": "increase in dead-cell fraction", "setting": "[7]; 0.003162 µM", "result": 0.0022}, {"measurement": "increase in dead-cell fraction", "setting": "[7]; 0.01 µM", "result": -0.0072}, {"measurement": "increase in dead-cell fraction", "setting": "[7]; 0.03162 µM", "result": 0.0004}, {"measurement": "increase in dead-cell fraction", "setting": "[7]; 0.1 µM", "result": 0.0047}, {"measurement": "increase in dead-cell fraction", "setting": "[7]; 0.3162 µM", "result": 0.0049}, {"measurement": "increase in dead-cell fraction", "setting": "[7]; 1 µM", "result": 0.0051}, {"measurement": "increase in dead-cell fraction", "setting": "[7]; 3.162 µM", "result": 0.0096}, {"measurement": "increase in dead-cell fraction", "setting": "THZ531 [8]; 0.0001 µM", "result": 0.0032}, {"measurement": "increase in dead-cell fraction", "setting": "THZ531 [8]; 0.0003162 µM", "result": -0.0012}, {"measurement": "increase in dead-cell fraction", "setting": "THZ531 [8]; 0.001 µM", "result": -0.0004}, {"measurement": "increase in dead-cell fraction", "setting": "THZ531 [8]; 0.003162 µM", "result": -0.0009}, {"measurement": "increase in dead-cell fraction", "setting": "THZ531 [8]; 0.01 µM", "result": -0.0022}, {"measurement": "increase in dead-cell fraction", "setting": "THZ531 [8]; 0.03162 µM", "result": 0.0046}, {"measurement": "increase in dead-cell fraction", "setting": "THZ531 [8]; 0.1 µM", "result": 0.0275}, {"measurement": "increase in dead-cell fraction", "setting": "THZ531 [8]; 0.3162 µM", "result": 0.0465}, {"measurement": "increase in dead-cell fraction", "setting": "THZ531 [8]; 1 µM", "result": 0.0403}, {"measurement": "increase in dead-cell fraction", "setting": "THZ1 [9]; 0.0001 µM", "result": -0.0036}, {"measurement": "increase in dead-cell fraction", "setting": "THZ1 [9]; 0.0003162 µM", "result": 0.0008}, {"measurement": "increase in dead-cell fraction", "setting": "THZ1 [9]; 0.001 µM", "result": -0.0008}, {"measurement": "increase in dead-cell fraction", "setting": "THZ1 [9]; 0.003162 µM", "result": 0.0033}, {"measurement": "increase in dead-cell fraction", "setting": "THZ1 [9]; 0.01 µM", "result": 0.0048}, {"measurement": "increase in dead-cell fraction", "setting": "THZ1 [9]; 0.03162 µM", "result": 0.0266}, {"measurement": "increase in dead-cell fraction", "setting": "THZ1 [9]; 0.1 µM", "result": 0.0311}, {"measurement": "increase in dead-cell fraction", "setting": "THZ1 [9]; 0.3162 µM", "result": 0.0265}, {"measurement": "increase in dead-cell fraction", "setting": "THZ1 [9]; 1 µM", "result": 0.0708}, {"measurement": "increase in dead-cell fraction", "setting": "[10]; 0.0001 µM", "result": -0.0093}, {"measurement": "increase in dead-cell fraction", "setting": "[10]; 0.0003162 µM", "result": -0.0043}, {"measurement": "increase in dead-cell fraction", "setting": "[10]; 0.001 µM", "result": -0.0016}, {"measurement": "increase in dead-cell fraction", "setting": "[10]; 0.003162 µM", "result": 0.0101}, {"measurement": "increase in dead-cell fraction", "setting": "[10]; 0.01 µM", "result": 0.132}, {"measurement": "increase in dead-cell fraction", "setting": "[10]; 0.03162 µM", "result": 0.241}, {"measurement": "increase in dead-cell fraction", "setting": "[10]; 0.1 µM", "result": 0.233}, {"measurement": "increase in dead-cell fraction", "setting": "[10]; 0.3162 µM", "result": 0.25}, {"measurement": "increase in dead-cell fraction", "setting": "[10]; 1 µM", "result": 0.208}, {"measurement": "increase in dead-cell fraction", "setting": "LEE011/Ribociclib; 0.001 µM", "result": -0.0051}, {"measurement": "increase in dead-cell fraction", "setting": "LEE011/Ribociclib; 0.003162 µM", "result": -0.0023}, {"measurement": "increase in dead-cell fraction", "setting": "LEE011/Ribociclib; 0.01 µM", "result": 0.0009}, {"measurement": "increase in dead-cell fraction", "setting": "LEE011/Ribociclib; 0.03162 µM", "result": -0.0029}, {"measurement": "increase in dead-cell fraction", "setting": "LEE011/Ribociclib; 0.1 µM", "result": 0}, {"measurement": "increase in dead-cell fraction", "setting": "LEE011/Ribociclib; 0.3162 µM", "result": 0.001}, {"measurement": "increase in dead-cell fraction", "setting": "LEE011/Ribociclib; 1 µM", "result": -0.0006}, {"measurement": "increase in dead-cell fraction", "setting": "LEE011/Ribociclib; 3.162 µM", "result": 0.0024}, {"measurement": "increase in dead-cell fraction", "setting": "LEE011/Ribociclib; 10 µM", "result": 0.0041}, {"measurement": "increase in dead-cell fraction", "setting": "Neratinib/HKI272; 0.0003162 µM", "result": -0.0012}, {"measurement": "increase in dead-cell fraction", "setting": "Neratinib/HKI272; 0.001 µM", "result": -0.0046}, {"measurement": "increase in dead-cell fraction", "setting": "Neratinib/HKI272; 0.003162 µM", "result": -0.0039}, {"measurement": "increase in dead-cell fraction", "setting": "Neratinib/HKI272; 0.01 µM", "result": -0.0045}, {"measurement": "increase in dead-cell fraction", "setting": "Neratinib/HKI272; 0.03162 µM", "result": 0.0031}, {"measurement": "increase in dead-cell fraction", "setting": "Neratinib/HKI272; 0.1 µM", "result": -0.0024}, {"measurement": "increase in dead-cell fraction", "setting": "Neratinib/HKI272; 0.3162 µM", "result": 0.0027}, {"measurement": "increase in dead-cell fraction", "setting": "Neratinib/HKI272; 1 µM", "result": 0.0247}, {"measurement": "increase in dead-cell fraction", "setting": "Neratinib/HKI272; 3.162 µM", "result": 0.571}, {"measurement": "increase in dead-cell fraction", "setting": "BSJ-03-123; 0.001 µM", "result": -0.0001}, {"measurement": "increase in dead-cell fraction", "setting": "BSJ-03-123; 0.003162 µM", "result": 0.0019}, {"measurement": "increase in dead-cell fraction", "setting": "BSJ-03-123; 0.01 µM", "result": -0.0014}, {"measurement": "increase in dead-cell fraction", "setting": "BSJ-03-123; 0.03162 µM", "result": -0.0007}, {"measurement": "increase in dead-cell fraction", "setting": "BSJ-03-123; 0.1 µM", "result": -0.0013}, {"measurement": "increase in dead-cell fraction", "setting": "BSJ-03-123; 0.3162 µM", "result": 0.0033}, {"measurement": "increase in dead-cell fraction", "setting": "BSJ-03-123; 1 µM", "result": 0.004}, {"measurement": "increase in dead-cell fraction", "setting": "BSJ-03-123; 3.162 µM", "result": 0.0059}, {"measurement": "increase in dead-cell fraction", "setting": "BSJ-03-123; 10 µM", "result": 0.0482}]}]}
